Test results published in ChEMBL document CHEMBL1201862, “PubChem BioAssay data set” (2004).
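Step 1: Grow cells in 96-well plates. Step 2: Expose to compound for 48 hours at 5 concentrations. Step 3: Interpolate endpoints linearly; if unreached, use highest concentration. GI50 marks 50% less growth.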 Activity calls are given as the source filed them. Cut-off read from the data, not from the text of the source: active = GI50 up to about 1.1 µM and inactive = higher.

How the values were obtained:
Assay in all cases: NCI-60 cell line screen, 48 h
SK-MEL-5 = tested on: SK-MEL-5
M14 = tested on: M14
SNB-75 = tested on: SNB-75
A498 = tested on: A498
BT-549 = tested on: BT-549
IGROV-1 = tested on: IGROV-1
NCI-H23 = tested on: NCI-H23
SF-539 = tested on: SF-539
UACC-257 = tested on: UACC-257
SN12C = tested on: SN12C
MDA-MB-231 = tested on: MDA-MB-231
Hs-578T = tested on: Hs-578T
UACC-62 = tested on: UACC-62
NCI-H460 = tested on: NCI-H460
OVCAR-4 = tested on: OVCAR-4
EKVX = tested on: EKVX
OVCAR-5 = tested on: OVCAR-5
HCT-116 = tested on: HCT-116
COLO 205 = tested on: COLO 205
KM12 = tested on: KM12

Measured: GI50

CCN1CSC(=S)N(CC)C1
inactive: SK-MEL-5 76.9 µM | M14 50.6 µM | SNB-75 44.2 µM | A498 27.8 µM | BT-549 > 100 µM | IGROV-1 75.3 µM | NCI-H23 48.3 µM | SF-539 27.7 µM | UACC-257 > 100 µM | SN12C > 100 µM | MDA-MB-231 19.5 µM | Hs-578T > 100 µM | UACC-62 38.8 µM | NCI-H460 56.2 µM | OVCAR-4 > 100 µM | EKVX > 100 µM | OVCAR-5 > 100 µM | HCT-116 41.3 µM | COLO 205 54.8 µM | KM12 98.2 µM

N#C/C(=C(\O)C(=O)O)c1ccc(-c2cccc3ccccc23)cc1
inactive: SK-MEL-5 > 100 µM | M14 > 100 µM | SNB-75 > 100 µM | A498 > 100 µM | BT-549 > 100 µM | IGROV-1 > 100 µM | NCI-H23 > 100 µM | SF-539 > 100 µM | UACC-257 > 100 µM | SN12C > 100 µM | MDA-MB-231 > 100 µM | Hs-578T > 100 µM | UACC-62 > 100 µM | NCI-H460 > 100 µM | OVCAR-4 > 100 µM | EKVX 59.4 µM | OVCAR-5 > 100 µM | HCT-116 > 100 µM | COLO 205 > 100 µM | KM12 > 100 µM

OC1[C@@H]2[C@@H](O)CCCN2C[C@@H](O)[C@H]1O (stereo not given in full)
inactive: SK-MEL-5 > 100 µM | M14 > 100 µM | SNB-75 > 100 µM | A498 > 100 µM | BT-549 > 100 µM | IGROV-1 > 100 µM | NCI-H23 > 100 µM | SF-539 > 100 µM | UACC-257 > 100 µM | SN12C > 100 µM | MDA-MB-231 > 100 µM | Hs-578T > 100 µM | UACC-62 > 100 µM | NCI-H460 > 100 µM | OVCAR-4 > 100 µM | EKVX > 100 µM | OVCAR-5 > 100 µM | HCT-116 > 100 µM | COLO 205 > 100 µM | KM12 > 100 µM

BrCCC[P+](c1ccccc1)(c1ccccc1)c1ccccc1
inactive: SK-MEL-5 6.27 µM | M14 11.8 µM | SNB-75 12 µM | A498 49.5 µM | BT-549 8.39 µM | IGROV-1 5.45 µM | NCI-H23 12.3 µM | SF-539 8.47 µM | UACC-257 2.71 µM | SN12C 23.1 µM | MDA-MB-231 8.13 µM | Hs-578T 15.5 µM | UACC-62 14 µM | NCI-H460 15.2 µM | OVCAR-4 31.3 µM | EKVX 14.4 µM | OVCAR-5 56.1 µM | HCT-116 1.64 µM | COLO 205 1.61 µM | KM12 5.06 µM

O=c1c2cc(I)ccc2nc(Sc2ncccc2[N+](=O)[O-])n1Cc1ccccc1
inactive: SK-MEL-5 18.3 µM | M14 28.3 µM | SNB-75 7.08 µM | A498 24.6 µM | BT-549 11.6 µM | IGROV-1 13.7 µM | NCI-H23 24 µM | SF-539 32.2 µM | UACC-257 23.2 µM | SN12C 20.6 µM | MDA-MB-231 21.1 µM | Hs-578T 16.7 µM | UACC-62 21.2 µM | NCI-H460 29.4 µM | OVCAR-4 33.3 µM | EKVX 17.7 µM | OVCAR-5 > 100 µM | HCT-116 18.8 µM | COLO 205 27.5 µM | KM12 27.4 µM

Cc1ccc(-c2cc(C(F)(F)F)nn2-c2ccc(S(N)(=O)=O)cc2)cc1 [CELECOXIB]
inactive: SK-MEL-5 14.8 µM | M14 67.9 µM | SNB-75 15.6 µM | A498 15.1 µM | BT-549 18.5 µM | IGROV-1 15.4 µM | NCI-H23 17.1 µM | SF-539 18.1 µM | UACC-257 19.7 µM | SN12C 15.6 µM | MDA-MB-231 15.6 µM | Hs-578T 18.5 µM | UACC-62 15.4 µM | NCI-H460 15.8 µM | OVCAR-4 12.4 µM | EKVX 17.9 µM | OVCAR-5 19.7 µM | HCT-116 55 µM | COLO 205 16.1 µM | KM12 15.1 µM

CN(C)CCCN=C(N)N
inactive: SK-MEL-5 > 100 µM | M14 > 100 µM | SNB-75 > 100 µM | A498 > 100 µM | BT-549 > 100 µM | IGROV-1 > 100 µM | NCI-H23 > 100 µM | SF-539 > 100 µM | UACC-257 > 100 µM | SN12C > 100 µM | MDA-MB-231 > 100 µM | Hs-578T > 100 µM | UACC-62 > 100 µM | NCI-H460 > 100 µM | OVCAR-4 > 100 µM | EKVX > 100 µM | OVCAR-5 > 100 µM | HCT-116 > 100 µM | COLO 205 > 100 µM | KM12 > 100 µM

CCCC(=O)OC1C(C(O)CO)OC2OC(C)(C)OC21 (stereo not given)
inactive: SK-MEL-5 > 100 µM | M14 > 100 µM | SNB-75 > 100 µM | A498 > 100 µM | BT-549 > 100 µM | IGROV-1 > 100 µM | NCI-H23 > 100 µM | SF-539 > 100 µM | UACC-257 > 100 µM | SN12C > 100 µM | MDA-MB-231 > 100 µM | Hs-578T > 100 µM | UACC-62 > 100 µM | NCI-H460 > 100 µM | OVCAR-4 > 100 µM | EKVX > 100 µM | OVCAR-5 > 100 µM | HCT-116 > 100 µM | COLO 205 > 100 µM | KM12 > 100 µM

O=C1C(=Cc2ccco2)C(=O)C2CCCCC12 (stereo not given)
inactive: SK-MEL-5 > 100 µM | M14 > 100 µM | SNB-75 > 100 µM | A498 > 100 µM | BT-549 > 100 µM | IGROV-1 > 100 µM | NCI-H23 > 100 µM | SF-539 > 100 µM | UACC-257 > 100 µM | SN12C > 100 µM | MDA-MB-231 > 100 µM | Hs-578T > 100 µM | UACC-62 > 100 µM | NCI-H460 > 100 µM | OVCAR-4 > 100 µM | EKVX > 100 µM | OVCAR-5 > 100 µM | HCT-116 > 100 µM | COLO 205 > 100 µM | KM12 > 100 µM

CNC(=O)N1N[C@H](c2ccccc2)[C@@H]1c1ccccc1.OB(O)O
inactive: SK-MEL-5 16.3 µM | M14 21.9 µM | SNB-75 15.6 µM | A498 20.6 µM | BT-549 19.3 µM | IGROV-1 18.6 µM | NCI-H23 22.6 µM | SF-539 17.9 µM | UACC-257 35.9 µM | SN12C 25.5 µM | MDA-MB-231 28.8 µM | Hs-578T 22.5 µM | UACC-62 13.2 µM | NCI-H460 21.8 µM | OVCAR-4 42 µM | EKVX 22.2 µM | OVCAR-5 29.9 µM | HCT-116 17.9 µM | COLO 205 20 µM | KM12 17 µM

C[C@@H]1C[C@H]2OC(=O)[C@@]3(C)CCC[C@@](C)([C@@H]23)[C@@]1(O)CCc1ccoc1
inactive: SK-MEL-5 40.6 µM | M14 > 100 µM | SNB-75 > 100 µM | A498 > 100 µM | BT-549 > 49.8 µM | IGROV-1 > 100 µM | NCI-H23 > 77.8 µM | SF-539 > 100 µM | UACC-257 > 95.7 µM | SN12C > 100 µM | MDA-MB-231 > 100 µM | Hs-578T > 100 µM | UACC-62 > 62.4 µM | NCI-H460 56.9 µM | OVCAR-4 > 64.9 µM | EKVX > 100 µM | OVCAR-5 > 100 µM | HCT-116 > 87.7 µM | COLO 205 > 100 µM | KM12 > 100 µM
